From patent US9375395B2, “Compositions comprising an NFκB-inhibitor and a tropoelastin promoter” (JOHNSON & JOHNSON CONSUMER INC., priority 2009, dated 2016) come the findings set out here.

One assay has as its system NFκB. Description: NFκB-INHIBITION TEST (NF-kB gene reporter luciferase, TNFα-stimulated FB293 cells). It is filed as cell-based, human. Here is the method: The NFκB-INHIBITION TEST is conducted in the following manner. FB293 cells, a stable transfected human epithelial cell line containing the gene reporter for NF-kB are used. They may be obtained from, e.g., Panomics (Fremont, Calif.). FB293 are plated at a density of 5×10^4 cells/mL in a suitable medium, e.g., Dulbecco's modified Eagle's medium (DMEM) supplemented with 10% fetal bovine serum (Invitrogen, San Diego, Calif.). The FB293 cells are stimulated with 100 ng/mL of Tumor Necrosis Factor-α (TNFα, available from Sigma-Aldrich of St Louis, Mo.) in the presence of the test sample. Separately, a control sample is tested wherein no test sample is applied. Following a 24-hour incubation at 37° C. with 5% CO2, cells are lysed with 40 μl of reporter lysis buffer (Promega, Madison, Wis.). A 20-μl aliquot of the lysate is assayed using a luciferase assay kit (Promega) and counted for 10 s in a Lmax luminometer (Molecular Devices, Sunnyvale, Calif.) with the data represented as the relative light unit/second. Percent NFκB Inhibition of the test sample is calculated as: NFκB Inhibition=[1−(Lsample/Lcontrol)]*100 where Lsample is the luminescence of the sample and Lcontrol is the luminescence of the control.
The NFκB-INHIBITION TEST described above was performed on test samples of Bay 11-7082 (Sigma-Aldrich, St. Louis, Mo.), Tetrahydrocurcuminoids CG (Sabinsa Corporation, Piscataway, N.J.), as well as various concentrations of 4-hexylresorcinol. The results are shown in Table 1, in which NF-kB Gene Reporter Activation (Luminescence, L) is reported for the test samples and a control sample. Percent NF-kB Inhibition is also reported.
The NFκB-INHIBITION TEST described above was performed on a series of substituted resorcinols each having a concentration of 10 ug/ml.

For another assay, the system named is elastin promoter. Description: TROPOELASTIN PROMOTER ASSAY (elastin promoter-luciferase reporter in H9C2 cells). Type of assay: cell-based, rat. Conditions: 0.1 ug/ml on active basis; for Percent Change Over Vehicle: 24 h (Table 3). The method, then: Suitable tropoelastin promoters may be determined, for example, using the TROPOELASTIN PROMOTER ASSAY. The TROPOELASTIN PROMOTER ASSAY is performed as follows. Rat cardiac myoblasts H9C2 (which may be purchased, for example from ATCC of Manassas, Va.) are used. Cultures are maintained in Dulbecco's modified Eagle's medium (DMEM, Invitrogen Life Technologies, Carlsbad, Calif.) supplemented with 10% fetal bovine serum, 2 mM glutamine, 100 units/ml penicillin, and 50 ug/ml streptomycin (Invitrogen Life Technologies, Carlsbad, Calif.). Cell cultures are transiently transfected with the elastin promoter-luciferase reporter construct (Elp2.2, a 2.2 kb elastin promoter fragment from nt −2267 to nt +2, driving the firefly luciferase gene, which may be obtained from Promega, Madison Wis.). DNA is prepared by Qiagen Maxi columns (Qiagen Valencia, Calif.). In all transfections, a construct with the thymidine kinase promoter and the Renilla luciferase reporter gene (pRL-TK, Promega, Madison Wis.) is included as an internal control. Typically, cells grown in 48-well plates are transfected with 0.45 ug total DNA per well using Lipofectamine 2000 (Invitrogen Life Technologies, Carlsbad, Calif.). One day after transfection, cells are treated with agents at indicated concentrations for approximately 24 hours before they are lysed for luciferase assays, using Dual-Luciferase Reporter System from Promega (Madison, Wis.), following manufacturer's protocol. The firefly luciferase activity is measured first (representing elastin promoter activity), followed by the renilla luciferase (internal control), using luminometer LMAX, from Molecular Devices (Sunnyvale, Calif.). The ratio of these two luciferase activities (RLU) is used to evaluate the Tropoelastin Promoter Activity. […]

Where [1] appears, read: 10 ug/ml, series of substituted resorcinols (Table 2).

As for `CCCCCCc1ccc(O)cc1O` [4-Hexylresorcinol], the “Percent NF-kB Inhibition” value in the assay on NFκB (1 ug/ml, TNFα 100 ng/ml stimulated FB293 cells, 24 h) is recorded as 1.9%; in the assay with NFκB (5 ug/ml, TNFα 100 ng/ml stimulated FB293 cells, 24 h) it was 50.9%; with NFκB (10 ug/ml, TNFα 100 ng/ml stimulated FB293 cells, 24 h (Table 1)), 72.9%; with NFκB (setting [1]) it was 92.4%; with NFκB (50 ug/ml, TNFα 100 ng/ml stimulated FB293 cells, 24 h) it was 91.4%. Also, the “Percent Change Over Vehicle” value in the assay with elastin promoter and with elastin promoter (listed as 4-hexylresorcinol) was −12% each time. Moreover, the “Tropoelastin Promoter Activity” value in the assay with elastin promoter (24 h, vehicle 1.36 ± 0.33 (Table 3)) turned out to be 1.2 ± 0.12.
As to `CCCCCCCCCCCC1c2cc(c(O)cc2O)C(CCCCCCCCCCC)c2cc(c(O)cc2O)C(CCCCCCCCCCC)c2cc(c(O)cc2O)C(CCCCCCCCCCC)c2cc1c(O)cc2O` (stereo not drawn) [C-Undecylcalix[4]-resorcinarene, C-Undecylcalix[4]-resorcinarene], in the assay on NFκB (setting [1]), the “Percent NF-kB Inhibition” value amounted to 4.87%.
Still for that read-out and setting: next, `CC1CCCC(=O)CCCCCc2cc(O)cc(O)c2C(=O)O1` (stereo not drawn) [Zearalanone]: 50.95%.
With `CC1CCCC(O)CCCCCc2cc(O)cc(O)c2C(=O)O1` (stereo not drawn) [β-Zearalanol], in the assay on NFκB (setting [1]), the “Percent NF-kB Inhibition” value came to 76.56%.
Still for that read-out and setting: with `C[C@H]1CCC[C@@H](O)CCC/C=C/c2cc(O)cc(O)c2C(=O)O1` [β-Zearalenol] the figure was 87.1%.
